Test results taken from article PMC2991631 (Biochemical pharmacology, 2010).
Read-outs that look alike come from different tables or passages of the source.

Tests used:
hCE1 (CES1) = settings: hCE1 relative to hiCE; cited from earlier work
[1] = system: carboxylesterases (CE) in human liver microsomal extracts; test: CE activity; format: biochemical; settings: 10μM benzil
[2] = system: carboxylesterases (hiCE, hCE1) in human liver microsomal extracts; format: biochemical; settings: 10μM benzil
[3] = liver microsomal extracts, typical

## CCc1c2c(nc3ccc(OC(=O)N4CCC(N5CCCCC5)CC4)cc13)-c1cc3c(c(=O)n1C2)COC(=O)[C@]3(O)CC [CPT-11, 7-ethyl-10-[4-(1-piperidino)-1-piperidino]carbonyloxycamptothecin]
hCE1 (CES1)
  Km for CPT-11, hCE1 higher than hiCE: ~ 25 fold

## O=C(C(=O)c1ccccc1)c1ccccc1 [benzil]
[1]; liver microsomal extract HG03
  CE activity + benzil: 640 ± 97 nmol/mg/min
  Loss in CE activity + benzil: 5935 nmol/mg/min
  Loss in CE activity + benzil [%]: 90.3%
[1]; liver microsomal extract HG74
  CE activity + benzil: 854 ± 97 nmol/mg/min
  Loss in CE activity + benzil: 6353 nmol/mg/min
  Loss in CE activity + benzil [%]: 88.2%
[1]; liver microsomal extract HG93
  CE activity + benzil: 521 ± 86 nmol/mg/min
  Loss in CE activity + benzil: 4207 nmol/mg/min
  Loss in CE activity + benzil [%]: 89.0%
[1]; liver microsomal extract HG95
  CE activity + benzil: 469 ± 45 nmol/mg/min
  Loss in CE activity + benzil: 4656 nmol/mg/min
  Loss in CE activity + benzil [%]: 90.9%
[1]; liver microsomal extract HG103
  CE activity + benzil: 448 ± 25 nmol/mg/min
  Loss in CE activity + benzil: 3258 nmol/mg/min
  Loss in CE activity + benzil [%]: 87.9%
[1]; liver microsomal extract HH13
  CE activity + benzil: 389 ± 41 nmol/mg/min
  Loss in CE activity + benzil: 504 nmol/mg/min
  Loss in CE activity + benzil [%]: 56.4%
[1]; liver microsomal extract HH61
  CE activity + benzil: 406 ± 21 nmol/mg/min
  Loss in CE activity + benzil: 5472 nmol/mg/min
  Loss in CE activity + benzil [%]: 93.1%
[1]; liver microsomal extract HH74
  CE activity + benzil: 377 ± 7.8 nmol/mg/min
  Loss in CE activity + benzil: 3329 nmol/mg/min
  Loss in CE activity + benzil [%]: 89.8%
[1]; liver microsomal extract HK37
  CE activity + benzil: 476 ± 58 nmol/mg/min
  Loss in CE activity + benzil: 5856 nmol/mg/min
  Loss in CE activity + benzil [%]: 92.5%
[1]; liver microsomal extract SD003
  CE activity + benzil: 439 ± 42 nmol/mg/min
  Loss in CE activity + benzil: 4804 nmol/mg/min
  Loss in CE activity + benzil [%]: 91.6%
[1]; liver microsomal extract SD004
  CE activity + benzil: 552 ± 35 nmol/mg/min
  Loss in CE activity + benzil: 5070 nmol/mg/min
  Loss in CE activity + benzil [%]: 90.2%
[1]; liver microsomal extract SD104
  CE activity + benzil: 507 ± 48 nmol/mg/min
  Loss in CE activity + benzil: 4881 nmol/mg/min
  Loss in CE activity + benzil [%]: 90.6%
[1]; liver microsomal extract SD120
  CE activity + benzil: 367 ± 27 nmol/mg/min
  Loss in CE activity + benzil: 4128 nmol/mg/min
  Loss in CE activity + benzil [%]: 91.8%
[1]; liver microsomal extract SD123
  CE activity + benzil: 544 ± 29 nmol/mg/min
  Loss in CE activity + benzil: 5401 nmol/mg/min
  Loss in CE activity + benzil [%]: 90.9%
[1]; liver microsomal extract SD124
  CE activity + benzil: 268 ± 11 nmol/mg/min
  Loss in CE activity + benzil: 3140 nmol/mg/min
  Loss in CE activity + benzil [%]: 92.1%
[1]; liver microsomal extract SD128
  CE activity + benzil: 713 ± 2.7 nmol/mg/min
  Loss in CE activity + benzil: 5600 nmol/mg/min
  Loss in CE activity + benzil [%]: 88.7%
[1]; liver microsomal extract SD132
  CE activity + benzil: 935 ± 79 nmol/mg/min
  Loss in CE activity + benzil: 7259 nmol/mg/min
  Loss in CE activity + benzil [%]: 88.6%
[1]; liver microsomal extract SD134
  CE activity + benzil: 322 ± 43 nmol/mg/min
  Loss in CE activity + benzil: 220 nmol/mg/min
  Loss in CE activity + benzil [%]: 40.6%
[1]; liver microsomal extract SD136
  CE activity + benzil: 314 ± 35 nmol/mg/min
  Loss in CE activity + benzil: 2882 nmol/mg/min
  Loss in CE activity + benzil [%]: 90.1%
[1]; [3]
  reduction of CE activity: 80–90%
[2]; liver microsomal extract HG03
  CPT-11 hydrolysis + benzil: 6.62 ± 0.16 pmol/mg/h
  Loss in CPT-11 hydrolysis + benzil: 37.6 pmol/mg/h
  Loss in CPT-11 hydrolysis + benzil [%]: 85%
[2]; liver microsomal extract HG74
  CPT-11 hydrolysis + benzil: 6.25 ± 0.13 pmol/mg/h
  Loss in CPT-11 hydrolysis + benzil: 33.6 pmol/mg/h
  Loss in CPT-11 hydrolysis + benzil [%]: 84.3%
[2]; liver microsomal extract HG93
  CPT-11 hydrolysis + benzil: 4.58 ± 0.10 pmol/mg/h
  Loss in CPT-11 hydrolysis + benzil: 26.0 pmol/mg/h
  Loss in CPT-11 hydrolysis + benzil [%]: 85.0%
[2]; liver microsomal extract HG95
  CPT-11 hydrolysis + benzil: 5.39 ± 0.09 pmol/mg/h
  Loss in CPT-11 hydrolysis + benzil: 19.1 pmol/mg/h
  Loss in CPT-11 hydrolysis + benzil [%]: 78.0%
[2]; liver microsomal extract HG103
  CPT-11 hydrolysis + benzil: 4.22 ± 0.10 pmol/mg/h
  Loss in CPT-11 hydrolysis + benzil: 28.3 pmol/mg/h
  Loss in CPT-11 hydrolysis + benzil [%]: 87.0%
[2]; liver microsomal extract HH13
  CPT-11 hydrolysis + benzil: 3.94 ± 0.12 pmol/mg/h
  Loss in CPT-11 hydrolysis + benzil: 30.0 pmol/mg/h
  Loss in CPT-11 hydrolysis + benzil [%]: 88.4%
[2]; liver microsomal extract HH61
  CPT-11 hydrolysis + benzil: 2.80 ± 0.007 pmol/mg/h
  Loss in CPT-11 hydrolysis + benzil: 19.4 pmol/mg/h
  Loss in CPT-11 hydrolysis + benzil [%]: 87.4%
[2]; liver microsomal extract HH74
  CPT-11 hydrolysis + benzil: 2.49 ± 0.04 pmol/mg/h
  Loss in CPT-11 hydrolysis + benzil: 12.9 pmol/mg/h
  Loss in CPT-11 hydrolysis + benzil [%]: 83.8%
[2]; liver microsomal extract HK37
  CPT-11 hydrolysis + benzil: 4.31 ± 0.02 pmol/mg/h
  Loss in CPT-11 hydrolysis + benzil: 31.0 pmol/mg/h
  Loss in CPT-11 hydrolysis + benzil [%]: 87.8%
[2]; liver microsomal extract SD003
  CPT-11 hydrolysis + benzil: 8.00 ± 0.01 pmol/mg/h
  Loss in CPT-11 hydrolysis + benzil: 46.6 pmol/mg/h
  Loss in CPT-11 hydrolysis + benzil [%]: 85.4%
[2]; liver microsomal extract SD004
  CPT-11 hydrolysis + benzil: 4.38 ± 0.07 pmol/mg/h
  Loss in CPT-11 hydrolysis + benzil: 29.5 pmol/mg/h
  Loss in CPT-11 hydrolysis + benzil [%]: 87.1%
[2]; liver microsomal extract SD104
  CPT-11 hydrolysis + benzil: 3.89 ± 0.32 pmol/mg/h
  Loss in CPT-11 hydrolysis + benzil: 15.6 pmol/mg/h
  Loss in CPT-11 hydrolysis + benzil [%]: 80.0%
[2]; liver microsomal extract SD120
  CPT-11 hydrolysis + benzil: 6.00 ± 0.20 pmol/mg/h
  Loss in CPT-11 hydrolysis + benzil: 37.8 pmol/mg/h
  Loss in CPT-11 hydrolysis + benzil [%]: 86.4%
[2]; liver microsomal extract SD123
  CPT-11 hydrolysis + benzil: 4.00 ± 0.09 pmol/mg/h
[2]; liver microsomal extract SD124
  CPT-11 hydrolysis + benzil: 5.04 ± 0.09 pmol/mg/h
  Loss in CPT-11 hydrolysis + benzil: 22.1 pmol/mg/h
  Loss in CPT-11 hydrolysis + benzil [%]: 81.4%
[2]; liver microsomal extract SD128
  CPT-11 hydrolysis + benzil: 4.03 ± 0.01 pmol/mg/h
  Loss in CPT-11 hydrolysis + benzil: 25.5 pmol/mg/h
  Loss in CPT-11 hydrolysis + benzil [%]: 86.4%
[2]; liver microsomal extract SD132
  CPT-11 hydrolysis + benzil: 4.30 ± 0.01 pmol/mg/h
  Loss in CPT-11 hydrolysis + benzil: 22.3 pmol/mg/h
  Loss in CPT-11 hydrolysis + benzil [%]: 83.9%
[2]; liver microsomal extract SD134
  CPT-11 hydrolysis + benzil: 2.57 ± 0.03 pmol/mg/h
  Loss in CPT-11 hydrolysis + benzil: 14.9 pmol/mg/h
  Loss in CPT-11 hydrolysis + benzil [%]: 85.3%
[2]; liver microsomal extract SD136
  CPT-11 hydrolysis + benzil: 7.76 ± 0.18 pmol/mg/h
  Loss in CPT-11 hydrolysis + benzil: 47.6 pmol/mg/h
  Loss in CPT-11 hydrolysis + benzil [%]: 86.0%
[2]; [3]
  reduction of yields of SN-38 produced: 80–90%
